Reference: PMC10706121, “Bioactive Polyketides from the Natural Complex of the Sea Urchin-Associated Fungi Penicillium sajarovii KMM 4718 and Aspergillus protuberus KMM 4747” (International Journal of Molecular Sciences, 2023)
Values after ≈ are worked out from the molar mass of the structure shown. “Also recorded” adds a separate entry of the source. Where two headings read alike, the source gives them in different places.

Columns and labels:
[1] = Cell viability assay (MTT), cytotoxic activity; format: cell-based, human; conditions: 24 h, MTT; for viability at 24 h, 10 µM / viability at 24 h, 100 µM: percent of control
Experimental: The HepG2 and H9c2 cells were cultured in DMEM medium (Biolot, St. Petersburg, Russia) containing 10% fetal bovine serum (Biolot, St. Petersburg, Russia) and 1% penicillin/streptomycin (Biolot, St. Petersburg, Russia) at 37 °C in a humidified atmosphere with 5% (v/v) CO2.
The HepG2 and H9c2 cells were seeded at concentrations of 5× 10^3 and 3×10^3 cell/well, respectively, and the experiments were started after 24 h. The compounds at concentrations up to 100 µM were added into the wells for 24 h, and the viability of the cells was measured by an MTT (3-(4,5-dimethylthiazol-2-yl)-2,5-diphenyltetrazolium bromide) assay, which was performed according to the manufacturer’s instructions (Sigma-Aldrich, Munich, Germany). All compounds were dissolved with DMSO so that the final concentration of DMSO in the cell culture was not more than 1%. Moreover, DMSO was used as a control. The absorbance of the resulting solution was measured at 570 nm with a microplate reader MultiscanFC (ThermoLabsystems Inc., Beverly, MA, USA). The results are presented as a percent of the control data and calculated IC50.

[2] = target: T1, urease from Canavalia ensiformis (Canavalia ensiformis, UniProt P07374); test: Urease inhibition assay (indophenol method, cell-free); format: biochemical
T1 construct: purchased Sigma
Experimental: A reaction mixture consisting of 25 µL of enzyme solution (urease from Canavalia ensiformis, Sigma, 1U final concentration) and 5 µL of test compounds dissolved in water (10–300.0 µM final concentration) was preincubated at 37 °C for 60 min in 96-well plates. Then, 55 µL of phosphate-buffered solution with […] of urea was added to each well and incubated at 37 °C for 10 min. The urease inhibitory activity was estimated by determining ammonia production using the indophenol method. Briefly, 45 µL of phenol reagent (1% w/v phenol and 0.005% w/v sodium nitroprusside) and 70 µL of alkali reagent (0.5% w/v NaOH and 0.1% active chloride NaClO) were added to each well. The absorbance was measured after 50 min at 630 nm using a MultiskanFS microplate reader (Thermo Scientific Inc., Beverly, MA, USA). All reactions were performed in triplicate in a final volume of 200 µL. The pH was maintained at 7.3–7.5 in all assays. DMSO 5% was used as a positive control.

[3] = tested on: Escherichia coli VKPM (B-7935); test: Antimicrobial activity, inhibition of microbial growth (OD620); format: cell-based; conditions: Escherichia coli, compounds tested at 100 µM; read-out: Inhibition of Microbial Growth, E. coli
Experimental: (§1) The yeast-like fungi of Candida albicans KMM 455 and bacterial strains Staphylococcus aureus ATCC 21027 and Escherichia coli VKPM (B-7935) (Collection of Marine Microorganisms PIBOC FEB RAS) were cultured on solid-medium Mueller Hinton broth with agar (16.0 g/L) in a Petri dish at 37 °C for 24 h.
(§2) The assays were performed in 96-well microplates in appropriate Mueller Hinton broth. Each well contained 90 µL of bacterial or of a yeast-like fungi suspension (10^9 CFU/mL). Then, 10 µL of a compound diluted at concentrations ranging from 1.5 to 100.0 µM using a 2-fold dilution was added (DMSO concentration < 1%). Culture plates were incubated overnight at 37 °C, and the OD620 was measured using a Multiskan FS spectrophotometer (Thermo Scientific Inc., Beverly, MA, USA). The antibiotic gentamicin and antifungal agent nitrofungin were used as positive controls at 1 mg/mL; 1% DMSO in PBS served as a negative control.

[4] = tested on: Staphylococcus aureus ATCC 21027; test: as above; format: cell-based; conditions: Staphylococcus aureus, ATCC21027, compounds tested at 100 µM; read-out: Inhibition of Microbial Growth, S. aureus
Experimental: as §1, §2

Candida albicans KMM 455 = test: as above; format: cell-based; conditions: Candida albicans, KMM455; compounds tested at 100 µM; read-out: Inhibition of Microbial Growth, C. albicans
Experimental: as §1, §2

Escherichia coli = tested on: Escherichia coli; set-up: method as in doi:10.1007/s11274-009-0062-y; conditions: cited from earlier work
Candida albicans = tested on: Candida albicans; set-up: method as in doi:10.1007/s11274-009-0062-y; conditions: cited from earlier work
Pseudomonas fluorescens = tested on: Pseudomonas fluorescens; set-up: method as in doi:10.1007/s11274-009-0062-y; conditions: cited from earlier work
Bacillus subtilis = tested on: Bacillus subtilis; set-up: method as in doi:10.1007/s11274-009-0062-y; conditions: cited from earlier work
[5] = human, HepG2 hepatocarcinoma cells

T1 sequence (P07374 whole entry, looked up): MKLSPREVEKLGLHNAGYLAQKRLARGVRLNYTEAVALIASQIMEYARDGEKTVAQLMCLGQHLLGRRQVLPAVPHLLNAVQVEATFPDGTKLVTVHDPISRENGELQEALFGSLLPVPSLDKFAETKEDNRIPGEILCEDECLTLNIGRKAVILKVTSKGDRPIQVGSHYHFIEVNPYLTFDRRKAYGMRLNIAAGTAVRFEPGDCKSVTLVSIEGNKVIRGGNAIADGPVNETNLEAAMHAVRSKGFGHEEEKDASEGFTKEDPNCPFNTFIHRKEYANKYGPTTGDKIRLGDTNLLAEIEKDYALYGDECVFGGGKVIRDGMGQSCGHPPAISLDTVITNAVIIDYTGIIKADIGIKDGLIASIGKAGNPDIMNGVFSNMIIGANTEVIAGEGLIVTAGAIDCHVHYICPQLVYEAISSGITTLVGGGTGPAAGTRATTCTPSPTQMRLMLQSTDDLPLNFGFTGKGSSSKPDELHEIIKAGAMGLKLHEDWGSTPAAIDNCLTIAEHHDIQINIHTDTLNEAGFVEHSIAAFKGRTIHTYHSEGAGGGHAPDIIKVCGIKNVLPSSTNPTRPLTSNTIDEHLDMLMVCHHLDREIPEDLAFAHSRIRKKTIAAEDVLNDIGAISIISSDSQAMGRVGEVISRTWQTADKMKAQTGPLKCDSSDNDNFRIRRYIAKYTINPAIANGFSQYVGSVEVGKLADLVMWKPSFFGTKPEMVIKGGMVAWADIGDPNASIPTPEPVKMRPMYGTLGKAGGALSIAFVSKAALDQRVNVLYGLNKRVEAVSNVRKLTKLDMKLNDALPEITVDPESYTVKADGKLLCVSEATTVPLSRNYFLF

`Cc1cc(=O)c2c(C)cc(O)cc2o1` [Compound 4, altechromone A] gave an IC50 at 24 h ([1]; human, HepG2 cells (human hepatocarcinoma), read-out: HepG2 IC50 (cytotoxic effect)) greater than 100 µM, a viability at 24 h, 10 µM [1, 5] of 99.2 ± 6.5% and a viability at 24 h, 100 µM [1, 5] of 92.6 ± 4.1%. The viability at 24 h, 10 µM ([1]; rat, H9c2 cardiomyocyte cells) was 110 ± 2.9%, the viability at 24 h, 100 µM ([1]; rat, H9c2 cardiomyocyte cells) was 96.5 ± 3.6% and the IC50 at 24 h ([1]; rat, H9c2 cells (normal rat cardiomyocytes), read-out: H9c2 IC50 (cytotoxic effect)) was greater than 100 µM. For the same compound, the IC50 [2] was greater than 100 µM, the “effect on urease activity” value ([2]; at concentrations of up to 100 µM) was “no effect; also recorded: very poor” and the inhibition at 100 µM [3] was 13.6 ± 0.3%. For the same compound, the inhibition at 100 µM [4] was 30.1 ± 1.2%, the inhibition at 100 µM (Candida albicans KMM 455) was 11.1 ± 1.3% and the “MIC against Escherichia coli” value (Escherichia coli) was 3.9 µg/mL (≈ 20.5 µM). For the same compound, the “MIC against Candida albicans” value (Candida albicans) was 3.9 µg/mL (≈ 20.5 µM), the “MIC against Pseudomonas fluorescens” value (Pseudomonas fluorescens) was 1.8 µg/mL (≈ 9.46 µM) and the “MIC against Bacillus subtilis” value (Bacillus subtilis) was 3.9 µg/mL (≈ 20.5 µM).
